Patent publication US9073820B2, “Pharmaceutical compositions comprising napthamides” (OREGON HEALTH & SCIENCE UNIVERSITY, priority 2011, dated 2015)
Like-named read-outs stand apart in the source and are kept apart here.

Key:
[1] = Pharmacokinetics of Compound 4 in mice (IV and PO); type: in vivo, BALB/c nude female mice
Description: The pharmacokinetics of Compound 4 was assessed in BALB/c nude female mice. Doses were 2 mg/kg administered intravenously (IV) and 20 mg/kg administered orally (PO). The intravenous formulation was administered in 1% N-Methyl-2-pyrrolidone (NMP) in water and was a clear solution. The per os solution was in 1.3% NMP+5% Tween-20® in a clear solution.

[2] = test system: MDA-MB-231 (human breast cancer cells); assay: MTT cell growth inhibition, 72 h, MDA-MB-231; type: cell-based; details: MDA-MB-231, 72 h, read-out: MDA-MB-231 (GI50)
Description: (§1) A549 (human lung cancer cells), MCF-7 (human breast cancer cells), MDA-MB-231 (human breast cancer cells) and MDA-MB-468 cells (human breast cancer cells) were maintained in Dulbecco's modified Eagle medium (DMEM, Invitrogen, Carlsbad, Calif.) supplemented with 10% (v/v) fetal calf serum (Sigma, St. Louis, Mo.), 10 μg/mL penicillin and 10 μg/mL streptomycin (Invitrogen, Carlsbad, Calif.) at 37° C. under 5% CO2. On the day of experiment, different concentrations of the drugs (final concentration 10^−8-10^−4 M) in duplicates were added to the cells and the cells were further incubated for 72 h. Then, the number of live cells was quantified by 3-(4,5-dimethyl-2-thiazolyl)-2,5-diphenyl-2H-tetrazolium bromide (MTT reagent, Sigma, St. Louis, Mo.).
(§2) The amount of reduced MTT formazan generated by live cells was determined by its absorbance at 570 nm after subtracting the background absorbance at 690 nm. The percent of cell growth was expressed as (A570(treated)−A570(initial))/(A570(vehicle treated)−A570(initial))*100, where A570(initial) represents initial cell population when drugs are added. The GI50 were derived from non-linear regression analysis of the dose-response curve using Prism 4.0 (GraphPad). […] Data were presented as mean±SD of at least two measurements in duplicates unless noted.

[3] = test system: MDA-MB-468 cells (human breast cancer cells); assay: MTT cell growth inhibition, 72 h, MDA-MB-468; type: cell-based; details: MDA-MB-468, 72 h, read-out: MDA-MB-468 (GI50)
Description: as §1, §2

[4] = test system: A549 (human lung cancer cells); assay: MTT cell growth inhibition, 72 h, A549; type: cell-based; details: A549, 72 h, read-out: A549 (GI50)
Description: as §1, §2

[5] = Maximum tolerated dose of Compound 4 (body weight); type: in vivo
Description: The maximum tolerated dose (MTD) of compound 4 was evaluated in nude mice. In this study 4 groups were established, each with five mice per group. The compound was formulated in a suspension of 5% Tween-80/H2O. Compound 4 was administered orally at dose levels of 120, 60, and 30 mg/kg as QD for five days. The body weight was measured daily for a total of 11 days.

[6] = female, BALB/c nude, mouse, plasma, intravenous, 2 mg/kg, 2 mg/kg IV, G1, read-out: Plasma concentration G1
[7] = female, BALB/c nude, mouse, plasma, intravenous, 2 mg/kg, 2 mg/kg IV, G2, read-out: Plasma concentration G2
[8] = female, BALB/c nude, mouse, plasma, intravenous, 2 mg/kg, 2 mg/kg IV, G3, read-out: Plasma concentration G3
[9] = female, BALB/c nude, mouse, plasma, intravenous, 2 mg/kg, 2 mg/kg IV, mean, read-out: Plasma concentration Mean IV
[10] = female, BALB/c nude, mouse, plasma, oral, 20 mg/kg, 20 mg/kg PO, G4, read-out: Plasma concentration G4
[11] = female, BALB/c nude, mouse, plasma, oral, 20 mg/kg, 20 mg/kg PO, G5, read-out: Plasma concentration G5
[12] = female, BALB/c nude, mouse, plasma, oral, 20 mg/kg, 20 mg/kg PO, G6, read-out: Plasma concentration G6
[13] = female, BALB/c nude, mouse, plasma, oral, 20 mg/kg, 20 mg/kg PO, mean, read-out: Plasma concentration Mean PO
[14] = female, BALB/c nude, mouse, plasma, 2 mg/kg IV
[15] = female, BALB/c nude, mouse, plasma, 20 mg/kg PO

NCCCOc1cc2ccccc2cc1C(=O)NCCCOc1cc2ccccc2cc1C(=O)Nc1ccc(Cl)cc1O [Compound 4]
CI ([1]; 2 mg/kg IV): 12.7 mL/min/kg
concentration at 0.083 hr [1, 6]: 1610 ng/mL
concentration at 0.083 hr [1, 7]: 1980 ng/mL
concentration at 0.083 hr [1, 8]: 1540 ng/mL
concentration at 0.083 hr [1, 9]: 1710 ng/mL
concentration at 0.25 hr [1, 6]: 1140 ng/mL
concentration at 0.25 hr [1, 7]: 1900 ng/mL
concentration at 0.25 hr [1, 8]: 1610 ng/mL
concentration at 0.25 hr [1, 9]: 1550 ng/mL
concentration at 0.5 hr [1, 6]: 1130 ng/mL
concentration at 0.5 hr [1, 7]: 966 ng/mL
concentration at 0.5 hr [1, 8]: 1170 ng/mL
concentration at 0.5 hr [1, 9]: 1090 ng/mL
concentration at 1 hr [1, 6]: 528 ng/mL
concentration at 1 hr [1, 7]: 378 ng/mL
concentration at 1 hr [1, 8]: 419 ng/mL
concentration at 1 hr [1, 9]: 442 ng/mL
concentration at 2 hr [1, 6]: 275 ng/mL
concentration at 2 hr [1, 7]: 178 ng/mL
concentration at 2 hr [1, 8]: 105 ng/mL
concentration at 2 hr [1, 9]: 186 ng/mL
concentration at 4 hr [1, 6]: 59.9 ng/mL
concentration at 4 hr [1, 7]: 71 ng/mL
concentration at 4 hr [1, 8]: 58.1 ng/mL
concentration at 4 hr [1, 9]: 63 ng/mL
concentration at 8 hr [1, 6]: 30.2 ng/mL
concentration at 8 hr [1, 7]: 58.7 ng/mL
concentration at 8 hr [1, 8]: 56.6 ng/mL
concentration at 8 hr [1, 9]: 48.5 ng/mL
concentration at 24 hr [1, 6]: 15.3 ng/mL
concentration at 24 hr [1, 7]: 16.4 ng/mL
concentration at 24 hr [1, 8]: 13.3 ng/mL
concentration at 24 hr [1, 9]: 15 ng/mL
concentration at 0.25 hr [1, 10]: 75.5 ng/mL
concentration at 0.25 hr [1, 11]: 92.7 ng/mL
concentration at 0.25 hr [1, 12]: 101 ng/mL
concentration at 0.25 hr [1, 13]: 89.7 ng/mL
concentration at 0.5 hr [1, 10]: 92 ng/mL
concentration at 0.5 hr [1, 11]: 82.4 ng/mL
concentration at 0.5 hr [1, 12]: 166 ng/mL
concentration at 0.5 hr [1, 13]: 114 ng/mL
concentration at 1 hr [1, 10]: 402 ng/mL
concentration at 1 hr [1, 11]: 465 ng/mL
concentration at 1 hr [1, 12]: 139 ng/mL
concentration at 1 hr [1, 13]: 335 ng/mL
concentration at 2 hr [1, 10]: 353 ng/mL
concentration at 2 hr [1, 11]: 75 ng/mL
concentration at 2 hr [1, 12]: 269 ng/mL
concentration at 2 hr [1, 13]: 232 ng/mL
concentration at 4 hr [1, 10]: 128 ng/mL
concentration at 4 hr [1, 11]: 65.9 ng/mL
concentration at 4 hr [1, 12]: 118 ng/mL
concentration at 4 hr [1, 13]: 104 ng/mL
concentration at 8 hr [1, 10]: 45.8 ng/mL
concentration at 8 hr [1, 11]: 30.1 ng/mL
concentration at 8 hr [1, 12]: 41.7 ng/mL
concentration at 8 hr [1, 13]: 39.2 ng/mL
concentration at 12 hr [1, 10]: 46 ng/mL
concentration at 12 hr [1, 11]: 47.6 ng/mL
concentration at 12 hr [1, 12]: 48.2 ng/mL
concentration at 12 hr [1, 13]: 47.3 ng/mL
concentration at 24 hr [1, 10]: 7.2 ng/mL
concentration at 24 hr [1, 11]: 12.9 ng/mL
concentration at 24 hr [1, 12]: 34.1 ng/mL
concentration at 24 hr [1, 13]: 18.1 ng/mL
AUC(0-inf) [1, 14]: 2630 ng·h/mL
AUC(0-t) [1, 14]: 2420 ng·h/mL
half-life [1, 14]: 9.6 h
Vd ([1]; female, BALB/c nude, mouse, plasma, 2 mg/kg IV, read-out: Vss): 4.8 L/kg
AUC(0-inf) [1, 15]: 1860 ng·h/mL
AUC(0-t) [1, 15]: 1620 ng·h/mL
Cmax [1, 15]: 335 ng/mL
Tmax [1, 15]: 1 h
half-life [1, 15]: 9.1 h
bioavailability ([1]; female, BALB/c nude, mouse, plasma, 20 mg/kg PO vs 2 mg/kg IV): 7.1%
GI50 [2]: 0.23 ± 0.006 µM
GI50 [3]: 0.21 ± 0.071 µM
GI50 [4]: 0.3 µM
effect on mouse body weight ([5]; PO 120, 60, 30 mg/kg QD for five days, body weight 11 days): no different from vehicle
tolerability ([5]; doses as high as 120 mg/kg per os, QD for five days): well-tolerated
